# From patent US6288036A, “Bradykinin type peptides” (priority 1993, dated 2001)
# *1 amine or outer side, *2 acyl side, *3 side chain or, on linkers, in order; H or OH if unused. Where a SMILES comes first, the peptide text is derived from it. Where no end group is shown, it is not given here. [ ]: non-standard residue; d: D form. The star is where a group is joined. X3 = O=C([C@@H]1C[C@H](Oc2ccc([N+](=O)[O-])cc2)CN1[*:1])[*:2]; X2 = O=C([C@@H]1C[C@H](Oc2ccccc2[N+](=O)[O-])CN1[*:1])[*:2]; Pro(cis-4-OPh) = O=C(O)[C@@H]1C[C@H](Oc2ccccc2)CN1; X1 = O=C([C@@H]1C[C@H](Sc2ccccc2)CN1[*:1])[*:2]; cisHyp = O=C(O)[C@@H]1C[C@H](O)CN1; Hyp = O=C(O)[C@@H]1C[C@@H](O)CN1; Cyclohexylmethyl = C1CCC(C*)CC1; dTic = O=C(O)[C@H]1Cc2ccccc2CN1
# Columns and labels:
# [1] = target: T1, bradykinin receptors on intestinal (ileal longitudinal) smooth muscle (Cavia porcellus, UniProt O70526); assay: Bradykinin antagonist activity on guinea pig ileal longitudinal smooth muscle (contraction, Schild analysis); type: cell-based; details: antagonism of bradykinin-induced contraction, guinea pig ileum longitudinal muscle, read-out: pA2 (converted)
# T1 construct: The longitudinal muscle was separated from the underlying circular muscle; from tissue; host or cells: guinea pig ileal longitudinal smooth muscle strips
# T1 sequence (O70526 1-372): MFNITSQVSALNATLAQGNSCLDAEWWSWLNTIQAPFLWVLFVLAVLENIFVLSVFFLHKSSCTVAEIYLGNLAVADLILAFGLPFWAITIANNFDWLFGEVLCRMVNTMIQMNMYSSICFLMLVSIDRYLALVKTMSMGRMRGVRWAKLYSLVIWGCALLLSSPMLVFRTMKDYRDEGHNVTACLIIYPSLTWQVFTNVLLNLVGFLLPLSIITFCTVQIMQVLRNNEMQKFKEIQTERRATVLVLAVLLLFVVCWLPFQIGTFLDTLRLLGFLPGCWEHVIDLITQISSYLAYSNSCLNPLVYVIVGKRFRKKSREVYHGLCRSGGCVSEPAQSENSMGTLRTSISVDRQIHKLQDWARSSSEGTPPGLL
# Protocol: Determination of Bradykinin Antagonist Activity
# Guinea pig intestine was removed and placed in a Petri dish containing Tyrodes solution and cut into 3-4 cm segments. The longitudinal muscle was separated from the underlying circular muscle using a cotton applicator (Paton and Zar, J. Physiol. (1968), 194:13). Muscle strips were connected to isometric force-displacement transducers (Grass or Gould) coupled to a physiograph and placed in tissue baths containing Tyrode's solution at 37° C. Each preparation was suspended under a resting tension of 2 g.
# After equilibration of the tissues, appropriate volumes of bradykinin solutions were cumulatively added to the 10 Ml tissue baths to increase the concentration of bradykinin in the bath step-by-step without washing out after each single dose. Higher concentrations were added only after the preceding contraction had reached a steady value. […] Antagonism of bradykinin responses in the presence of antagonist were determined by repeating the cumulative addition procedure for bradykinin after the tissue has been exposed to the antagonist for 5 minutes. Three or four differentconcentrations of antagonist are studied sequentially in the same preparations. Responses were expressed as a percentage of the maximum contraction elicited by bradykinin in the absence of antagonist. pA2 values were calculated by Schild analysis.
# bradykinin receptor = target: T2, bradykinin receptor (Cavia porcellus, UniProt O70526); assay: 3H-Bradykinin binding assay, guinea pig terminal ileum homogenate; details: competition with 3H-bradykinin (~0.3 nM), guinea pig terminal ileum membranes, 90 min ambient temperature
# T2 construct: from tissue; host or cells: guinea pig terminal ileum, washed membrane homogenate
# T2 sequence (O70526 1-372): T1 sequence (O70526 1-372)
# Description: Binding of ^3 H-Bradykinin was preformed using the method of D. C. Manning, […], and […]. Pharmacol. Exp. Ther., (1986),237 504. The tissues used in the binding assay were terminal ileum from male Hartley guinea pigs (150-350 g). After dissection, tissues were placed in 20 vol of ice-cold buffer A (25 Mm TES containing 0.2 g/L of 1,10-phenanthroline adjusted to Ph 6.8 with ammonium hydroxide) and homogenized using a Ploytron Tissumizer at setting 6 for 15 sec. The homogenate was centrifuged at 50,000×g for 10 min, the supernatant discarded, and the pellet resuspended in ice-cold buffer A by homogenization with the Polytron. Each tissue was homogenized and centrifuged three times. The final pellet was resuspended in buffer A containing bovine serum albumin (1 g/L) and Bacitracin (0.14 g/L) to a final volume of 170 Ml/g of the original tissue weight. The binding assay consisted of 1 Ml in 12×75 mm polypropylene tubes: 50 uL ^3 H-bradykinin (20,000 dpm, ~0.3 Nm in the final assay volume), […] displacing drug in buffer A, and 750 Ul tissue homogenate. […] Tubes were incubated for 90 min at ambient temperature. The assays were terminated by filtration over Whatman GF/B glass fiber filters that had been pretreated for 2 hours with polyethyleneimine (2 g/L) using a Brandel Tissue Harvester, followed by washing with 4×1 Ml aliquots of ice-cold 50 Mm Tris, Ph 7.4. Filters were dissolved in Ready-Safe Fluor (Beckman) for at least 90 min before quantitation by liquid scintillation spectrometry. Kd values were determined using saturation binding and analysis by […]. Pharmacol. Methods, (1985), 213)], followed by LIGAND [[…], Anal. Biochem., (1980), 220]. Ki values were determined using competitive analysis followed by EBDA and LIGAND. The following test results were obtained.
# [2] = anesthetized rat, intra-aortic vs intravenous administration; cited from earlier work
# [3] = cited from earlier work
Compound,Kb [1],Ki (bradykinin receptor),destruction on a single passage through the pulmonary circulation [2],half life in the systemic circulation [3]
CCO[C@@H]1C[C@@H](C(=O)N[C@@H](CCCNC(=N)N)C(=O)O)N(C(=O)[C@H]2Cc3ccccc3CN2C(=O)[C@H](CO)NC(=O)[C@H](Cc2ccccc2)NC(=O)CNC(=O)[C@@H]2C[C@@H](O)CN2C(=O)[C@@H]2CCCN2C(=O)[C@H](CCCNC(=N)N)NC(=O)[C@H](N)CCCNC(=N)N)C1 [D-Arg-Arg-Pro-4Hyp-Gly-Phe-Ser-D-Tic-(Hydroxyproline trans ethyl ether)-Arg] (H-[dR]RP[Hyp]GFS[dTic][Hyp](Et)R-OH),51.3 nM,5.44 nM,–,–
N=C(N)NCCC[C@@H](N)C(=O)N[C@@H](CCCNC(=N)N)C(=O)N1CCC[C@H]1C(=O)N1C[C@H](O)C[C@H]1C(=O)NCC(=O)N[C@@H](Cc1ccccc1)C(=O)N[C@@H](CO)C(=O)N1Cc2ccccc2C[C@@H]1C(=O)N1C[C@@H](Oc2ccccc2[N+](=O)[O-])C[C@H]1C(=O)N[C@@H](CCCNC(=N)N)C(=O)O [D-Arg-Arg-Pro-4Hyp-Gly-Phe-Ser-D-Tic-(hydroxyproline cis 2-nitrophenyl ether)-Arg] (H-[dR]RP[Hyp]GFS[dTic][X2]R-OH),141 nM,3.76 nM,–,–
N=C(N)NCCC[C@@H](N)C(=O)N[C@@H](CCCNC(=N)N)C(=O)N1CCC[C@H]1C(=O)N1C[C@H](O)C[C@H]1C(=O)NCC(=O)N[C@@H](Cc1ccccc1)C(=O)N[C@@H](CO)C(=O)N1Cc2ccccc2C[C@@H]1C(=O)N1C[C@@H](Oc2ccc([N+](=O)[O-])cc2)C[C@H]1C(=O)N[C@@H](CCCNC(=N)N)C(=O)O [D-Arg-Arg-Pro-4Hyp-Gly-Phe-Ser-D-Tic-(hydroxyproline cis 4-nitrophenyl ether)-Arg] (H-[dR]RP[Hyp]GFS[dTic][X3]R-OH),138 nM,3.98 nM,–,–
N=C(N)NCCC[C@@H](N)C(=O)N[C@@H](CCCNC(=N)N)C(=O)N1CCC[C@H]1C(=O)N1C[C@H](O)C[C@H]1C(=O)NCC(=O)N[C@@H](Cc1ccccc1)C(=O)N[C@@H](CO)C(=O)N1Cc2ccccc2C[C@@H]1C(=O)N1C[C@@H](OCC2CCCCC2)C[C@H]1C(=O)N[C@@H](CCCNC(=N)N)C(=O)O [D-Arg-Arg-Pro-4Hyp-Gly-Phe-Ser-D-Tic-(hydroxyproline cis cyclohexylmethyl ether)-Arg] (H-[dR]RP[Hyp]GFS[dTic][cisHyp](Cyclohexylmethyl)R-OH),–,13.2 nM,–,–
CCO[C@H]1C[C@@H](C(=O)N[C@@H](CCCNC(=N)N)C(=O)O)N(C(=O)[C@H]2Cc3ccccc3CN2C(=O)[C@H](CO)NC(=O)[C@H](Cc2ccccc2)NC(=O)CNC(=O)[C@@H]2C[C@@H](O)CN2C(=O)[C@@H]2CCCN2C(=O)[C@H](CCCNC(=N)N)NC(=O)[C@H](N)CCCNC(=N)N)C1 [D-Arg-Arg-Pro-4Hyp-Gly-Phe-Ser-D-Tic-(hydroxyproline cis ethyl ether)-Arg] (H-[dR]RP[Hyp]GFS[dTic][cisHyp](Et)R-OH),110 nM,4.15 nM,–,–
N=C(N)NCCC[C@@H](N)C(=O)N[C@@H](CCCNC(=N)N)C(=O)N1CCC[C@H]1C(=O)N1C[C@H](O)C[C@H]1C(=O)NCC(=O)N[C@@H](Cc1ccccc1)C(=O)N[C@@H](CO)C(=O)N1Cc2ccccc2C[C@@H]1C(=O)N1C[C@@H](Oc2ccccc2)C[C@H]1C(=O)N[C@@H](CCCNC(=N)N)C(=O)O [D-Arg-Arg-Pro-4Hyp-Gly-Phe-Ser-D-Tic-(hydroxyproline cis phenyl ether)-Arg] (H-[dR]RP[Hyp]GFS[dTic][Pro(cis-4-OPh)]R-OH),–,2.51 nM,–,–
N=C(N)NCCC[C@@H](N)C(=O)N[C@@H](CCCNC(=N)N)C(=O)N1CCC[C@H]1C(=O)N1C[C@H](O)C[C@H]1C(=O)NCC(=O)N[C@@H](Cc1ccccc1)C(=O)N[C@@H](CO)C(=O)N1Cc2ccccc2C[C@@H]1C(=O)N1C[C@@H](Sc2ccccc2)C[C@H]1C(=O)N[C@@H](CCCNC(=N)N)C(=O)O [D-Arg-Arg-Pro-4Hyp-Gly-Phe-Ser-D-Tic-(hydroxyproline cis phenyl thioether)-Arg] (H-[dR]RP[Hyp]GFS[dTic][X1]R-OH),11.2 nM,0.06 nM,–,–
CCCO[C@H]1C[C@@H](C(=O)N[C@@H](CCCNC(=N)N)C(=O)O)N(C(=O)[C@H]2Cc3ccccc3CN2C(=O)[C@H](CO)NC(=O)[C@H](Cc2cccs2)NC(=O)CNC(=O)[C@@H]2C[C@@H](O)CN2C(=O)[C@@H]2CCCN2C(=O)[C@H](CCCNC(=N)N)NC(=O)[C@H](N)CCCNC(=N)N)C1 [D-Arg-Arg-Pro-4Hyp-Gly-Thi-Ser-D-Tic-(Hydroxyproline cis propyl ether)-Arg],224 nM,1.58 nM,–,–
N=C(N)NCCC[C@@H](N)C(=O)N[C@@H](CCCNC(=N)N)C(=O)N1CCC[C@H]1C(=O)N1C[C@H](O)C[C@H]1C(=O)NCC(=O)N[C@@H](Cc1cccs1)C(=O)N[C@@H](CO)C(=O)N1Cc2ccccc2C[C@@H]1C(=O)N1C[C@H](OC(=O)Nc2ccccc2)C[C@H]1C(=O)N[C@@H](CCCNC(=N)N)C(=O)O [D-Arg-Arg-Pro-4Hyp-Gly-Thi-Ser-D-Tic-(Hydroxyproline trans phenyl carbamoyl)-Arg],–,11.5 nM,–,–
CCCO[C@@H]1C[C@@H](C(=O)N[C@@H](CCCNC(=N)N)C(=O)O)N(C(=O)[C@H]2Cc3ccccc3CN2C(=O)[C@H](CO)NC(=O)[C@H](Cc2cccs2)NC(=O)CNC(=O)[C@@H]2C[C@@H](O)CN2C(=O)[C@@H]2CCCN2C(=O)[C@H](CCCNC(=N)N)NC(=O)[C@H](N)CCCNC(=N)N)C1 [D-Arg-Arg-Pro-4Hyp-Gly-Thi-Ser-D-Tic-(Hydroxyproline trans propyl ether)-Arg],138 nM,4.85 nM,–,–
CO[C@H]1C[C@@H](C(=O)N[C@@H](CCCNC(=N)N)C(=O)O)N(C(=O)[C@H]2Cc3ccccc3CN2C(=O)[C@H](CO)NC(=O)[C@H](Cc2cccs2)NC(=O)CNC(=O)[C@@H]2C[C@@H](O)CN2C(=O)[C@@H]2CCCN2C(=O)[C@H](CCCNC(=N)N)NC(=O)[C@H](N)CCCNC(=N)N)C1 [D-Arg-Arg-Pro-4Hyp-Gly-Thi-Ser-D-Tic-(hydroxyproline cis methyl ether)-Arg],141 nM,1.83 nM,–,–
"RPPGFSPFR [bradykinin, Arg-Pro-Pro-Gly-Phe-Ser-Pro-Phe-Arg]",–,–,98-99%,less than 30 seconds
